The target of one assay is T1, HiBit-BRM fusion protein (Homo sapiens, UniProt P51531).
T1 construct: expressed in transfected cells
Put plainly: HiBiT-BRM cell-based degradation assay (Nano-Glo HiBiT Lytic Detection, 24 h). To be noted: HeLa cells expressing HiBiT-BRM; for DC50: read-out: BRM HiBit Degradation IC50; for BRM HiBit Degradation Maximum measured: top dose 30 μM. A digest of the protocol:
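HeLa cells stably expressing HiBiT-BRM were treated for 24 h with compounds (10-point 3-fold dilutions, 30 μM final top dose, in duplicate). HiBiT was detected by lytic LgBiT complementation luminescence. % degradation was normalized to DMSO (high control) and 2 μM of a reference BRM/BRG1 degrader (low control).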
For orientation: HiBiT is a short tag that completes a luciferase, so light tracks the accessible tagged protein.

Assay [1] has as its target T2, HiBit-BRG1 fusion protein (Homo sapiens, UniProt P51532).
T2 construct: expressed in transfected cells
Put plainly: HiBiT-BRG1 cell-based degradation assay (Nano-Glo HiBiT Lytic Detection, 24 h). To be noted: HeLa cells expressing HiBit-BRG1 and LgBit; for DC50: read-out: BRG1 HiBit Degradation IC50; for Dmax: HeLa, top dose 30 μM, read-out: BRG1 HiBit Degradation Maximum measured. A digest of the protocol: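 Stable HeLa line expressing HiBiT-BRG1 and LgBiT, seeded at 5000 cells/well; luminescence read after lytic Nano-Glo HiBiT reagent and 10 min shaking at RT. % degradation normalised between DMSO (high control) and 2 μM reference BRM/BRG1 degrader (low control).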

T2 sequence (P51532 whole entry, the tested form may be a part): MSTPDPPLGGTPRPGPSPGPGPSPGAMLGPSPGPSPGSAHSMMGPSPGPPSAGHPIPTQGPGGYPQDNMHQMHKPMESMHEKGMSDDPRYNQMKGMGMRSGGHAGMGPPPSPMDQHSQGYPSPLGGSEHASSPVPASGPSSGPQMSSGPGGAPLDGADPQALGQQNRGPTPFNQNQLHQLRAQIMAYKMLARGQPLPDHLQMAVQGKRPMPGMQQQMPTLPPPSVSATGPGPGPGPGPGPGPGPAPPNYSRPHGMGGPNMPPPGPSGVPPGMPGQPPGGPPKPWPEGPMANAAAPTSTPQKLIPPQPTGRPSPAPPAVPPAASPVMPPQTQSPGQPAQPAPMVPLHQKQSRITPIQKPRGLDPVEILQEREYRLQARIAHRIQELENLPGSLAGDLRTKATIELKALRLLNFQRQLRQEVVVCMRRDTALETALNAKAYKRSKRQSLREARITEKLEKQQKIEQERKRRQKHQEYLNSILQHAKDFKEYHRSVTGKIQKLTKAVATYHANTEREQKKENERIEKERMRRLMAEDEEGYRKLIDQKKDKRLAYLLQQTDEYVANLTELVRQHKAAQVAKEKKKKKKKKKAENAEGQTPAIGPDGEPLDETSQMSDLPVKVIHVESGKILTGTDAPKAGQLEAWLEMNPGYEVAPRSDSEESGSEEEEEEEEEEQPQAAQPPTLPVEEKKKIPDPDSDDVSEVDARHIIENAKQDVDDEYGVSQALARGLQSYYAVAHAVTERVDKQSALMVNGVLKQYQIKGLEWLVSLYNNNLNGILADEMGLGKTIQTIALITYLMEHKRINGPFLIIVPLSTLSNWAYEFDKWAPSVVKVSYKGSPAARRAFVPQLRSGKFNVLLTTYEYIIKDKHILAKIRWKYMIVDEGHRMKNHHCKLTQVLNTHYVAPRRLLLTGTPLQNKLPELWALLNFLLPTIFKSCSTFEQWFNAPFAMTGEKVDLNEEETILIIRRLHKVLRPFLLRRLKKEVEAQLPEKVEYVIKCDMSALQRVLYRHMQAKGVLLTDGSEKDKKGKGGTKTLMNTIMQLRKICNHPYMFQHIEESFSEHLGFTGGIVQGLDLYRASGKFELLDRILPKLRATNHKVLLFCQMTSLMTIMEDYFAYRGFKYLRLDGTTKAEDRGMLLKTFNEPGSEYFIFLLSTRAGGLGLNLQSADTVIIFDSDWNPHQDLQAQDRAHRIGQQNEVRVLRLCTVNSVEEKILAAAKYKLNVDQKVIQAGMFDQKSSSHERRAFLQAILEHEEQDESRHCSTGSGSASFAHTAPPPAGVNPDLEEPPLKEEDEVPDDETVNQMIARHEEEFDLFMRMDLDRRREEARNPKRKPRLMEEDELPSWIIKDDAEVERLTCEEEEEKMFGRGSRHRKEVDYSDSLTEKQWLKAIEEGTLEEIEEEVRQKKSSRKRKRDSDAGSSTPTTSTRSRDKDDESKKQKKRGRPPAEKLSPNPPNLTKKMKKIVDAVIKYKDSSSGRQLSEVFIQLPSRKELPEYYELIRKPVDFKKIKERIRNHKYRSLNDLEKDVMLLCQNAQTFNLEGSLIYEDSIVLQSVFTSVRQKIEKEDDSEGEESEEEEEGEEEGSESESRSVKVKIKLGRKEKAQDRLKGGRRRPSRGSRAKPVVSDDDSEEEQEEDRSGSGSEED
T1 sequence (P51531 whole entry, the tested form may be a part): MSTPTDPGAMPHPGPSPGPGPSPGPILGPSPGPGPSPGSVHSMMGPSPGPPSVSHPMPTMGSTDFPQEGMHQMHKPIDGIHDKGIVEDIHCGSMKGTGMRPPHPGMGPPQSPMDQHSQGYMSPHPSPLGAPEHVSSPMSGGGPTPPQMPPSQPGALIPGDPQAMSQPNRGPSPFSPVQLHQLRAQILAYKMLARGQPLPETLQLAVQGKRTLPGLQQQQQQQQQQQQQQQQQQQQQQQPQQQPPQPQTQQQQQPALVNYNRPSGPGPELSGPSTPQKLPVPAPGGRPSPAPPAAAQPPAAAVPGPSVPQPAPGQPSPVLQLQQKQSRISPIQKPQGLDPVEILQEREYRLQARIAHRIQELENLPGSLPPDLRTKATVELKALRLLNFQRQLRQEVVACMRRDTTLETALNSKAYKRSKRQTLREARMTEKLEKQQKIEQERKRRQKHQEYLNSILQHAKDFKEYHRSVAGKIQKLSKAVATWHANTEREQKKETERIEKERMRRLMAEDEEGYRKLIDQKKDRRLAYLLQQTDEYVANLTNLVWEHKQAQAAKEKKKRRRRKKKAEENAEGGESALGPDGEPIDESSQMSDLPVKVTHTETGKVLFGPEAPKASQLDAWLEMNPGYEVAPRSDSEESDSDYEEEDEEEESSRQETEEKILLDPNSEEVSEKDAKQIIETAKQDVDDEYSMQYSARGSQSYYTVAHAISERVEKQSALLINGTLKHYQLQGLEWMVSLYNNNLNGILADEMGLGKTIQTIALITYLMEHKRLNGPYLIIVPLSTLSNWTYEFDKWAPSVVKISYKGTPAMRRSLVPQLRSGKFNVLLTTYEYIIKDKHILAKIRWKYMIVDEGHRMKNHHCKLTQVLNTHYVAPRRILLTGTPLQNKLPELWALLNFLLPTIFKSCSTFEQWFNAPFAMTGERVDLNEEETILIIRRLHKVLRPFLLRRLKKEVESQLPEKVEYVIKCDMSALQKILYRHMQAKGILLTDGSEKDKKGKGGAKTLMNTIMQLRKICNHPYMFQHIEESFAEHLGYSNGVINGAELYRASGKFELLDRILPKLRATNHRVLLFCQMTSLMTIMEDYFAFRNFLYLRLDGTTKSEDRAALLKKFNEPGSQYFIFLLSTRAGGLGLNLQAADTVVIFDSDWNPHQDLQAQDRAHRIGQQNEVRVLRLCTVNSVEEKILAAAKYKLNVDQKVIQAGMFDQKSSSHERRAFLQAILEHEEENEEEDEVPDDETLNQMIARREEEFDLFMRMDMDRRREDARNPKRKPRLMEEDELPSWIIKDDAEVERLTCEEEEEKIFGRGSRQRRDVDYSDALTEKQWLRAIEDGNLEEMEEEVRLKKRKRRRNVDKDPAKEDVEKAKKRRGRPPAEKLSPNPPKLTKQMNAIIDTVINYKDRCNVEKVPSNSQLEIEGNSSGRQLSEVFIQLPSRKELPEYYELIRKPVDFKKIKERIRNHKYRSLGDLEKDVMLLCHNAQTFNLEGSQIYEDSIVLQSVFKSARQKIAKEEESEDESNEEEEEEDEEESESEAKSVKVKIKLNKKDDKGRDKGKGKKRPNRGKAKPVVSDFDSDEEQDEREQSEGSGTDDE

For the compound `CS(=O)(=O)n1ccc(C(=O)NCC(=O)Nc2nc(-c3cccc(-c4ccnc(N5CCN(C(=O)CCOCCOCCNc6ccc7c(c6)C(=O)N(C6CCC(=O)NC6=O)C7=O)CC5)c4)c3)cs2)c1` (stereo not shown) [Compound 40, N-(2-((4-(3-(2-(4-(3-(2-(2-((2-(2,6-dioxopiperidin-3-yl)-1,3-dioxoisoindolin-5-yl)amino)ethoxy)ethoxy)propanoyl)piperazin-1-yl)pyridin-4-yl)phenyl)thiazol-2-yl)amino)-2-oxoethyl)-1-(methylsulfonyl)-1H-pyrrole-3-carboxamide], at HiBit-BRM fusion protein, the DC50 is less than 0.1 µM and the “BRM HiBit Degradation Maximum measured” value is “A (‘A’ = Maximum degradation >75%)”. Further, in assay [1], the DC50 was less than 0.1 µM and the Dmax was greater than 75%.

For `Cc1c(C(=O)NCC(=O)Nc2nc(-c3cccc(-c4ccnc(N(C)CC(=O)NCCCCCCCCNC(=O)COc5cccc6c5C(=O)N(C5CCC(=O)NC5=O)C6=O)c4)c3)cs2)cn(S(C)(=O)=O)c1C` (stereo not shown) [Compound 41, N-[2-[[4-[3-[2-[[2-[8-[[2-[2-(2,6-dioxo-3-piperidyl)-1,3-dioxo-isoindolin-4-yl]oxyacetyl]amino]octylamino]-2-oxo-ethyl]-methyl-amino]-4-pyridyl]phenyl]thiazol-2-yl]amino]-2-oxo-ethyl]-4,5-dimethyl-1-methylsulfonyl-pyrrole-3-carboxamide], at HiBit-BRM fusion protein, the DC50 was greater than 10 µM and the “BRM HiBit Degradation Maximum measured” value was “C (‘C’ = Maximum degradation <50%)”. In assay [1], the DC50 is greater than 10 µM and the Dmax is less than 50%.

As for `CS(=O)(=O)n1ccc(C(=O)NCC(=O)Nc2nc(-c3cccc(-c4cccc(CNC(=O)CCOCCOCCNc5cccc6c5C(=O)N(C5CCC(=O)NC5=O)C6=O)c4)c3)cs2)c1` (stereo not shown) [Compound 42, N-(2-((4-(3′-((3-(2-(2-((2-(2,6-dioxopiperidin-3-yl)-1,3-dioxoisoindolin-4-yl)amino)ethoxy)ethoxy)propanamido)-methyl)-[1,1′-biphenyl]-3-yl)thiazol-2-yl)amino)-2-oxoethyl)-1-(methylsulfonyl)-1H-pyrrole-3-carboxamide], on HiBit-BRM fusion protein, the DC50 is greater than 10 µM and the “BRM HiBit Degradation Maximum measured” value is given as “C (‘C’ = Maximum degradation <50%)”. Besides, in assay [1], the DC50 was in the range of 0.1 to 1 µM and the Dmax lay within 50 to 75%.

As for `CS(=O)(=O)n1ccc(C(=O)NCC(=O)Nc2nc(-c3cccc(-c4cccc(CNC(=O)CCCCCCOc5cccc6c5C(=O)N(C5CCC(=O)NC5=O)C6=O)c4)c3)cs2)c1` (stereo not shown) [Compound 43, N-(2-((4-(3′-((7-((2-(2,6-dioxopiperidin-3-yl)-1,3-dioxoisoindolin-4-yl)oxy)heptanamido)methyl)-[1,1′-biphenyl]-3-yl)thiazol-2-yl)amino)-2-oxoethyl)-1-(methylsulfonyl)-1H-pyrrole-3-carboxamide], on HiBit-BRM fusion protein, the DC50 is greater than 10 µM and the “BRM HiBit Degradation Maximum measured” value was “C (‘C’ = Maximum degradation <50%)”. In assay [1], the DC50 lay in the range of 0.1 to 1 µM and the Dmax lay within 50 to 75%.

Turning to `Cc1ncsc1-c1ccc(CNC(=O)[C@@H]2C[C@@H](O)CN2C(=O)[C@@H](NC(=O)COCCOCC(=O)NCc2cccc(-c3cccc(-c4csc(NC(=O)CNC(=O)c5ccn(S(C)(=O)=O)c5)n4)c3)c2)C(C)(C)C)cc1` [Compound 44, N-(2-((4-(3′-((S)-12-((2S,4R)-4-hydroxy-2-((4-(4-methylthiazol-5-yl)benzyl)carbamoyl)pyrrolidine-1-carbonyl)-13,13-dimethyl-3,10-dioxo-5,8-dioxa-2,11-diazatetradecyl)-[1,1′-biphenyl]-3-yl)thiazol-2-yl)amino)-2-oxoethyl)-1-(methylsulfonyl)-1H-pyrrole-3-carboxamide], at HiBit-BRM fusion protein, the DC50 fell in the range of 1 to 10 µM; the “BRM HiBit Degradation Maximum measured” value was “B (‘B’ = Maximum degradation ≥50% and ≤75%)”. For the same compound, in assay [1], the DC50 lay in the range of 1 to 10 µM and the Dmax was greater than 75%.

Consider `CS(=O)(=O)n1ccc(C(=O)NCC(=O)Nc2nc(-c3cccc(-c4cccc(CNC(=O)CCOCCOCCNc5ccc6c(c5)C(=O)N(C5CCC(=O)NC5=O)C6=O)c4)c3)cs2)c1` (stereo not shown) [Compound 45, N-(2-((4-(3′-((3-(2-(2-((2-(2,6-dioxopiperidin-3-yl)-1,3-dioxoisoindolin-5-yl)amino)ethoxy)ethoxy)propanamido)-methyl)-[1,1′-biphenyl]-3-yl)thiazol-2-yl)amino)-2-oxoethyl)-1-(methylsulfonyl)-1H-pyrrole-3-carboxamide], for which, at HiBit-BRM fusion protein, the DC50 was greater than 10 µM and the “BRM HiBit Degradation Maximum measured” value is “C (‘C’ = Maximum degradation <50%)”. In assay [1], the DC50 was greater than 10 µM and the Dmax was less than 50%.

Take `Cc1ncsc1-c1ccc(CNC(=O)[C@@H]2C[C@@H](O)CN2C(=O)[C@@H](NC(=O)CCCCCCCCCNC(=O)CN(C)c2cc(-c3cccc(-c4csc(NC(=O)CNC(=O)c5ccn(S(C)(=O)=O)c5)n4)c3)ccn2)C(C)(C)C)cc1` [Compound 47]: on HiBit-BRM fusion protein, the DC50 was less than 0.1 µM; the “BRM HiBit Degradation Maximum measured” value is “B (‘B’ = Maximum degradation ≥50% and ≤75%)”. Further, in assay [1], the DC50 was less than 0.1 µM and the Dmax lay in the range of 50 to 75%.

For the compound `Cc1ncsc1-c1ccc(CNC(=O)[C@@H]2C[C@@H](O)CN2C(=O)[C@@H](NC(=O)CCCCC(=O)NCc2cccc(-c3cccc(-c4csc(NC(=O)CNC(=O)c5ccn(S(C)(=O)=O)c5)n4)c3)c2)C(C)(C)C)cc1` [Compound 48, N1-((S)-1-((2S,4R)-4-hydroxy-2-((4-(4-methylthiazol-5-yl)benzyl)carbamoyl)pyrrolidin-1-yl)-3,3-dimethyl-1-oxobutan-2-yl)-N6-((3′-(2-(2-(1-(methylsulfonyl)-1H-pyrrole-3-carboxamido)acetamido)thiazol-4-yl)-[1,1′-biphenyl]-3-yl)methyl)adipamide], at HiBit-BRM fusion protein, the DC50 is greater than 10 µM and the “BRM HiBit Degradation Maximum measured” value is “C (‘C’ = Maximum degradation <50%)”. In assay [1], the DC50 was in the range of 1 to 10 µM and the Dmax lay within 50 to 75%.

With `Cc1ncsc1-c1ccc(CNC(=O)[C@@H]2C[C@@H](O)CN2C(=O)[C@@H](NC(=O)CCCCCCCC(=O)NCc2cccc(-c3cccc(-c4csc(NC(=O)CNC(=O)c5ccn(S(C)(=O)=O)c5)n4)c3)c2)C(C)(C)C)cc1` [Compound 49, N1-((S)-1-((2S,4R)-4-hydroxy-2-((4-(4-methylthiazol-5-yl)benzyl)carbamoyl)pyrrolidin-1-yl)-3,3-dimethyl-1-oxobutan-2-yl)-N9-((3′-(2-(2-(1-(methylsulfonyl)-1H-pyrrole-3-carboxamido)acetamido)thiazol-4-yl)-[1,1′-biphenyl]-3-yl)methyl)nonanediamide], on HiBit-BRM fusion protein, the DC50 was less than 0.1 µM and the “BRM HiBit Degradation Maximum measured” value is on record as “A (‘A’ = Maximum degradation >75%)”. Also, in assay [1], the DC50 is less than 0.1 µM and the Dmax was greater than 75%.

For the compound `Cc1ncsc1-c1ccc(CNC(=O)[C@@H]2C[C@@H](O)CN2C(=O)[C@@H](NC(=O)CCCCCCC(=O)NCc2cccc(-c3cccc(-c4csc(NC(=O)CNC(=O)c5ccn(S(C)(=O)=O)c5)n4)c3)c2)C(C)(C)C)cc1` [Compound 50, N1-((S)-1-((2S,4R)-4-hydroxy-2-((4-(4-methylthiazol-5-yl)benzyl)carbamoyl)pyrrolidin-1-yl)-3,3-dimethyl-1-oxobutan-2-yl)-N8-((3′-(2-(2-(1-(methylsulfonyl)-1H-pyrrole-3-carboxamido)acetamido)thiazol-4-yl)-[1,1′-biphenyl]-3-yl)methyl)octanediamide], on HiBit-BRM fusion protein, the DC50 was in the range of 0.1 to 1 µM and the “BRM HiBit Degradation Maximum measured” value is “A (‘A’ = Maximum degradation >75%)”. Moreover, in assay [1], the DC50 lay within 0.1 to 1 µM and the Dmax is greater than 75%.

As to `CS(=O)(=O)n1ccc(C(=O)NCC(=O)Nc2nc(-c3cccc(-c4cccc(CNC(=O)CCCCCCCCCCNc5cccc6c5C(=O)N(C5CCC(=O)NC5=O)C6=O)c4)c3)cs2)c1` (stereo not shown) [Compound 51, N-[2-[[4-[3-[3-[[11-[[2-(2,6-dioxo-3-piperidyl)-1,3-dioxo-isoindolin-4-yl]amino]undecanoylamino]methyl]-phenyl]phenyl]thiazol-2-yl]amino]-2-oxo-ethyl]-1-methylsulfonyl-pyrrole-3-carboxamide], at HiBit-BRM fusion protein, the DC50 is greater than 10 µM and the “BRM HiBit Degradation Maximum measured” value is listed as “C (‘C’ = Maximum degradation <50%)”. Further, in assay [1], the DC50 lay in the range of 0.1 to 1 µM and the Dmax was 50 to 75%.

Turning to `CS(=O)(=O)n1ccc(C(=O)NCC(=O)Nc2nc(-c3cccc(-c4cccc(CNC(=O)CCCCCCCCCCNc5ccc6c(c5)C(=O)N(C5CCC(=O)NC5=O)C6=O)c4)c3)cs2)c1` (stereo not shown) [Compound 52], at HiBit-BRM fusion protein, the DC50 was greater than 10 µM and the “BRM HiBit Degradation Maximum measured” value is on record as “C (‘C’ = Maximum degradation <50%)”. In assay [1], the DC50 fell in the range of 0.1 to 1 µM and the Dmax fell in the range of 50 to 75%.

Take `CS(=O)(=O)n1ccc(C(=O)NCC(=O)Nc2nc(-c3cccc(-c4ccnc(C5(C(=O)NCCCCCCNc6ccc7c(c6)CN(C6CCC(=O)NC6=O)C7=O)CC5)c4)c3)cs2)c1` (stereo not shown) [Compound 53, N-(6-[[2-(2,6-dioxopiperidin-3-yl)-1-oxo-3H-isoindol-5-yl]amino]hexyl)-1-[4-[3-(2-[2-[(1-methanesulfonylpyrrol-3-yl)formamido]acetamido]-1,3-thiazol-4-yl)phenyl]pyridin-2-yl]cyclopropane-1-carboxamide]: at HiBit-BRM fusion protein, the DC50 is less than 0.1 µM and the “BRM HiBit Degradation Maximum measured” value was “A (‘A’ = Maximum degradation >75%)”. In addition, in assay [1], the DC50 is less than 0.1 µM and the Dmax was greater than 75%.

The record behind these values is patent publication US12662479B2 (Foghorn Therapeutics Inc., priority 2020, dated 2026).
